Reference: BigSolDB 2.1

CC(C)(C#N)N=NC(C)(C)C#N
Details | solubility (mole fraction)
in acetone, 278.15 K | 0.0518
in acetone, 283.45 K | 0.062
in acetone, 288.75 K | 0.0741
in acetone, 293.05 K | 0.0881
in acetone, 297.85 K | 0.106
in acetone, 302.95 K | 0.127
in acetone, 307.95 K | 0.145
in acetone, 312.75 K | 0.176
in acetone, 318.05 K | 0.209
in acetone, 322.75 K | 0.236
in benzene, 279.25 K | 0.0254
in benzene, 283.75 K | 0.0311
in benzene, 290.05 K | 0.0411
in benzene, 293.65 K | 0.049
in benzene, 298.05 K | 0.0603
in benzene, 303.25 K | 0.077
in benzene, 307.95 K | 0.0938
in benzene, 312.65 K | 0.119
in benzene, 317.65 K | 0.151
in benzene, 322.25 K | 0.181
in ethanol, 278.55 K | 0.00263
in ethanol, 284.35 K | 0.00408
in ethanol, 288.95 K | 0.00511
in ethanol, 293.15 K | 0.00667
in ethanol, 297.85 K | 0.00938
in ethanol, 302.95 K | 0.0128
in ethanol, 307.65 K | 0.0165
in ethanol, 312.55 K | 0.0221
in ethanol, 317.65 K | 0.0314
in ethanol, 322.55 K | 0.0427
in ethyl acetate, 278.15 K | 0.0349
in ethyl acetate, 282.85 K | 0.0424
in ethyl acetate, 287.75 K | 0.053
in ethyl acetate, 293.65 K | 0.0669
in ethyl acetate, 298.35 K | 0.0821
in ethyl acetate, 303.15 K | 0.0959
in ethyl acetate, 307.85 K | 0.119
in ethyl acetate, 312.95 K | 0.144
in ethyl acetate, 317.95 K | 0.175
in ethyl acetate, 322.95 K | 0.206
in methanol, 268.15 K | 0.0034
in methanol, 273.15 K | 0.00441
in methanol, 278.15 K | 0.00567
in methanol, 283.15 K | 0.00738
in methanol, 288.15 K | 0.00942
in methanol, 293.15 K | 0.0124
in methanol, 298.15 K | 0.0162
in methanol, 303.15 K | 0.0212
in methanol, 308.15 K | 0.0277
in methanol, 313.15 K | 0.0364
in methanol, 318.15 K | 0.0479
in methanol, 323.15 K | 0.0637
